Patent US20200338084A1, “INHIBITORS OF LOW MOLECULAR WEIGHT PROTEIN TYROSINE PHOSPHATASE (LMPTP) AND USES THEREOF” (Sanford Burnham Prebys Medical Discovery Institute, priority 2018, published 2020)
pIC50: −log10 of the molar value.

target: T1, human LMPTP-A (Homo sapiens, UniProt P24666); experiment: Enzyme Assay of Inhibition of LMPTP-A; assay type: biochemical; details: phosphatase assay, OMFP or pNPP substrate, 50 mM Bis-Tris pH 6.0, 37° C.
T1 sequence (P24666 1-158): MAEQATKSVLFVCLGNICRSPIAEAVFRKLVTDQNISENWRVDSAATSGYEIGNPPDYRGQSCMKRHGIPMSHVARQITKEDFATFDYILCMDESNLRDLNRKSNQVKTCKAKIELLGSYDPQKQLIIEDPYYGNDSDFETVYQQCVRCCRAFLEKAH
How it was run: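 Recombinant human LMPTP-A in 50 mM Bis-Tris pH 6.0, 1 mM DTT, 0.01% Triton X-100 at 37° C. Substrate OMFP read continuously by fluorescence (485/525 nm), or pNPP stopped with NaOH and read at 405 nm. IC50 taken from inhibitor concentration versus % activity plots.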

Row | Structure (SMILES) | pIC50
1 | Cc1ccc(CNc2ncn(Cc3c(Cl)cccc3Cl)c3ncnc2-3)o1 [{3-[(2,6-dichlorophenyl)methyl](3-hydropurin-6-yl)}[(5-methyl(2-furyl))methyl]amine] | 4.70 to 6.00
2 | COc1ccc(CNc2ncn(Cc3c(Cl)cccc3Cl)c3ncnc2-3)cc1 [{3-[(2,6-dichlorophenyl)methyl](3-hydropurin-6-yl)}[(4-methoxyphenyl)methyl]amine] | 4.70 to 6.00
3 | COC(=O)c1cccc(Nc2ncn(Cc3c(Cl)cccc3Cl)c3ncnc2-3)c1 [Methyl 3-({3-[(2,6-dichlorophenyl)methyl]-3-hydropurin-6-yl}amino)benzoate] | 4.70 to 6.00
4 | Cc1c(Cl)cccc1Nc1ncn(Cc2c(Cl)cccc2Cl)c2ncnc1-2 [N-(3-Chloro-2-methylphenyl)-3-(2,6-dichlorobenzyl)-3H-purin-6-amine] | 4.70 to 6.00
5 | CCCCNc1ncn(Cc2c(Cl)cccc2Cl)c2ncnc1-2 [Butyl-[3-(2,6-dichloro-benzyl)-3H-purin-6-yl]-amine] | 4.70 to 6.00
6 | Clc1cccc(Cn2cnc(NCc3ccco3)c3ncnc2-3)c1 [[3-(3-Chloro-benzyl)-3H-purin-6-yl]-furan-2-ylmethyl-amine] | ≤ 4.70
7 | Oc1ccc(Nc2ncn(Cc3c(Cl)cccc3Cl)c3ncnc2-3)cc1 [4-({3-[(2,6-Dichlorophenyl)methyl]-3-hydropurin-6-yl}amino)phenol] | 4.70 to 6.00
8 | Nc1ncn(Cc2c(Cl)cccc2[N+](=O)[O-])c2ncnc1-2 [3-(2-Chloro-6-nitrobenzyl)-3H-purin-6-amine] | ≥ 6.00
9 | COC(=O)c1ccc(Nc2ncn(Cc3c(Cl)cccc3Cl)c3ncnc2-3)cc1 [Methyl 4-({3-[(2,6-dichlorophenyl)methyl]-3-hydropurin-6-yl}amino)benzoate] | 4.70 to 6.00
10 | Clc1cccc(Cl)c1Cn1cnc(Nc2ccccc2N2CCOCC2)c2ncnc1-2 [{3-[(2,6-Dichlorophenyl)methyl](3-hydropurin-6-yl)}(2-morpholin-4-ylphenyl)amine] | ≤ 4.70
11 | Cc1ccc(-c2nc3c(N)ncn(Cc4c(Cl)cccc4Cl)c-3n2)s1 [3-[(2,6-Dichlorophenyl)methyl]-8-(5-methyl(2-thienyl))-3-hydropurine-6-ylamine] | ≥ 6.00
12 | Nc1ncn(Cc2c(Cl)cccc2Cl)c2nc(Cc3ccc(F)cc3)nc1-2 [3-[(2,6-dichlorophenyl)methyl]-8-[(4-fluorophenyl)methyl]-3-hydropurine-6-ylamine] | ≥ 6.00
13 | Cc1ccc(S(=O)(=O)Nc2ncn(Cc3c(Cl)cccc3Cl)c3ncnc2-3)cc1 [{3-[(2,6-dichlorophenyl)methyl](3-hydropurin-6-yl)}[(4-methylphenyl)sulfonyl]amine] | ≤ 4.70
14 | Nc1ncn(Cc2c(Cl)cccc2Cl)c2nc(-c3cccc(Cl)n3)nc1-2 [3-[(2,6-Dichlorophenyl)methyl]-8-(6-chloro(2-pyridyl))-3-hydropurine-6-ylamine] | ≥ 6.00
15 | Nc1ncn(Cc2c(Br)ccnc2Cl)c2ncnc1-2 [3-[(4-bromo-2-chloro-3-pyridyl)methyl]-3-hydropurine-6-ylamine] | 4.70 to 6.00
16 | Nc1ncn(Cc2c(Cl)cccc2Cl)c2nc(-c3ccc(F)cc3)nc1-2 [3-[(2,6-Dichlorophenyl)methyl]-8-(4-fluorophenyl)-3-hydropurine-6-ylamine] | ≥ 6.00
17 | Cc1ccncc1-c1nc2c(N)ncn(Cc3c(Cl)cccc3Cl)c-2n1 [3-[(2,6-Dichlorophenyl)methyl]-8-(4-methyl(3-pyridyl))-3-hydropurine-6-ylamine] | ≥ 6.00
18 | O=[N+]([O-])c1ccc(Nc2ncn(Cc3c(Cl)cccc3Cl)c3ncnc2-3)cc1 [{3-[(2,6-Dichlorophenyl)methyl](3-hydropurin-6-yl)}(4-nitrophenyl)amine] | 4.70 to 6.00
19 | COc1ccc(-c2nc3c(N)ncn(Cc4c(Cl)cccc4Cl)c-3n2)cn1 [3-[(2,6-Dichlorophenyl)methyl]-8-(6-methoxy(3-pyridyl))-3-hydropurine-6-ylamine] | ≥ 6.00

Row | Structure (SMILES) | pIC50
20 | Cc1ccccc1Cc1nc2c(N)ncn(Cc3c(Cl)cccc3Cl)c-2n1 [3-[(2,6-dichlorophenyl)methyl]-8-[(2-methylphenyl)methyl]-3-hydropurine-6-ylamine] | ≥ 6.00
21 | Clc1cccc(Cl)c1Cn1cnc(Nc2ccc(Br)cc2)c2ncnc1-2 [{3-[(2,6-Dichlorophenyl)methyl](3-hydropurin-6-yl)}(4-bromophenyl)amine] | 4.70 to 6.00
22 | COCCNc1ncn(Cc2c(Cl)cccc2Cl)c2ncnc1-2 [[3-(2,6-Dichloro-benzyl)-3H-purin-6-yl]-(2-methoxy-ethyl)-amine] | 4.70 to 6.00
23 | Nc1ncn(Cc2c(Cl)cccc2Cl)c2nc(-c3cnccc3Cl)nc1-2 [3-[(2,6-Dichlorophenyl)methyl]-8-(4-chloro(3-pyridyl))-3-hydropurine-6-ylamine] | ≥ 6.00
24 | N#Cc1ccc(-c2nc3c(N)ncn(Cc4c(Cl)cccc4Cl)c-3n2)s1 [5-(6-amino-3-(2,6-dichlorobenzyl)-3H-purin-8-yl)thiophene-2-carbonitrile] | ≥ 6.00
25 | CCCc1nc2c(N)ncn(Cc3c(Cl)cccc3Cl)c-2n1 [3-[(2,6-Dichlorophenyl)methyl]-8-propyl-3-hydropurine-6-ylamine] | ≥ 6.00
26 | Cc1ccc(Cn2cnc(N)c3ncnc2-3)cc1 [3-(4-Methyl-benzyl)-3H-purin-6-ylamine] | ≤ 4.70
27 | Nc1ncn(Cc2c(Cl)cccc2Cl)c2nc(-c3cccc(F)c3F)nc1-2 [3-[(2,6-dichlorophenyl)methyl]-8-(2,3-difluorophenyl)-3-hydropurine-6-ylamine] | ≥ 6.00
28 | Nc1ncn(Cc2c(Cl)cccc2Cl)c2nc(-c3ccc4scnc4c3)nc1-2 [8-Benzothiazol-5-yl-3-[(2,6-dichlorophenyl)methyl]-3-hydropurine-6-ylamine] | ≥ 6.00
29 | Clc1cccc(Cl)c1Cn1cnc(NCc2cccnc2)c2ncnc1-2 [[3-(2,6-Dichloro-benzyl)-3H-purin-6-yl]-pyridin-3-ylmethyl-amine] | 4.70 to 6.00
30 | Nc1ncn(Cc2c(Cl)cccc2Cl)c2nc(C(F)F)nc1-2 [3-[(2,6-dichlorophenyl)methyl]-8-(difluoromethyl)-3-hydropurine-6-ylamine] | 4.70 to 6.00
31 | Clc1cccc(Cl)c1Cn1cnc(NCc2cccs2)c2ncnc1-2 [[3-(2,6-Dichloro-benzyl)-3H-purin-6-yl]-thiophen-2-ylmethyl-amine] | 4.70 to 6.00
32 | Clc1cccc(Cl)c1Cn1cnc(N2CCOCC2)c2ncnc1-2 [3-(2,6-Dichloro-benzyl)-6-morpholin-4-yl-3H-purine] | ≤ 4.70
33 | N#Cc1ccc(Cn2cnc(NCc3ccco3)c3ncnc2-3)cc1 [4-{6-[(Furan-2-ylmethyl)-amino]-purin-3-ylmethyl}-benzonitrile] | ≤ 4.70
34 | Nc1ncn(Cc2c(Cl)cccc2Cl)c2nc(Cc3ccc(C(F)(F)F)cc3)nc1-2 [3-[(2,6-dichlorophenyl)methyl]-8-{[4-(trifluoromethyl)phenyl]methyl}-3-hydropurine-6-ylamine] | ≥ 6.00
35 | Nc1ncn(Cc2c(Cl)cccc2Cl)c2nc(-c3ccccc3)nc1-2 [3-[(2,6-Dichlorophenyl)methyl]-8-phenyl-3-hydropurine-6-ylamine] | ≥ 6.00
36 | Nc1ncn(Cc2c(Cl)cccc2Cl)c2nc(C3CCNCC3)nc1-2 [3-[(2,6-Dichlorophenyl)methyl]-8-(4-piperidyl)-3-hydropurine-6-ylamine] | ≥ 6.00
37 | N#Cc1ccc(CNc2ncn(Cc3c(Cl)cccc3Cl)c3ncnc2-3)cc1 [4-[({3-[(2,6-dichlorophenyl)methyl]-3-hydropurin-6-yl}amino)methyl]benzenecarbonitrile] | 4.70 to 6.00
